Tests used:
[1] = Critical micellar concentration by Nile red fluorescence; type: physicochemical
Method: We characterized the critical micellar concentration (CMC) of the polymers to evaluate their ability to self-assemble into polymolecular structures.
Nile red can be used to measure the CMC of surfactants and polymolecular architectures by following the fluorescence of the dye: the critical micelle concentration coincides with a strong increase in the intensity of the fluorescence (λex/em: 549/628 nm). Serial dilutions of polymers were made in the range of 2.5 to 7×10^−4 mg/mL. 200 μL of each sample were used with 10 μL of Nile Red solution in methanol (1×10^−5 M). Fluorescence was read in a 96-well plate (λex/em: 549/628 nm).

[2] = mouse, in vivo, iv
Method: The impact of CTA-PGMA-DODA and PMGA-DODA on the circulation profile of radiolabeled [^14C]-liposomes was studied in healthy Balb/c mice. In this study, the concentrations of radiolabeled liposomes in the blood were monitored for 6 hours after intravenous injection.
Healthy animals were housed in a controlled environment (22° C., 12 hours day/night cycle) with ad libitum access to food and water. A total of 11 healthy male mice were divided in three groups (3-3-5). As a blank, liposomes without polymer on the surface were injected intravenously by the subclavian vein at a concentration of 2 mg/kg of phospholipids. Approximately 30-50 μL of blood was collected at various times (0.25, 0.5, 1, 2, 4, 6 Hours). Six hours post-injection, blood was collected by cardiac puncture for a terminal timepoint. Animals were euthanized by a cardiac perfusion with 3 mL of isotonic phosphate-buffered saline solution pH=7.2 (potassium phosphate 1.1 mmol/L, NaCl 150 mmol/L, disodium phosphate 3 mmol/L) and organs were collected. Biological samples were digested at 58° C. (in Solvable®, Perkin Elmer®), bleached with 30% hydrogen peroxide, and assessed by scintillation counting, using Hionic Fluor® (Perkin Elmer®) as a scintillation cocktail.

Molecule | CMC [1] [mg/mL] | AUC0-6 h of the control liposomes relative to the liposome formulation prepared with the named polymer [2] [fold] | effect on circulation time of liposomes [2]
CCCCCCCCCCCCOS(=O)(=O)[O-].[Na+] [SDS, sodium dodecyl sulfate] | 2 |  | 
DODA-Terminated Poly(Monoglycerol Acrylate) [PMGA-DODA6.5k] |  | 1.2 | do not seem to prolong the circulation time
